For 15 compounds, GI50 and TGI results are on record in PubChem BioAssay (NCI).

Common to all, as to assay: NCI tumour cell line growth inhibition, 48 h
Assay [1] concerns 786-0 renal.
In assay [2] the test system is A498 renal.
Assay [3] deals with A549 NSCLC.
In assay [4] the test system is BT-549 breast.
For assay [5], the system named is HCC-2998 colon.
The test system of assay [6] is LOX IMVI melanoma.
In assay [7] the test system is MOLT-4 leukemia.
Assay [8] has as its system NCI-H23 lung.
Assay [9] deals with SF-268 CNS.
In assay [10] the test system is SK-MEL-28 melanoma.

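Each compound was tested at five concentrations against cells in 96-well plates for 48 hours. GI50 is the concentration that inhibits growth by half. Definition used: TGI = concentration required for complete inhibition of growth.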

Consider `CNCc1cccc2c1OCCOCCOCCN(C)S(=O)(=O)c1ccc(cc1)-c1cnc(N)c(n1)C(=O)N2`, for which the GI50 was 0.446 µM in assay [1]; 0.133 µM in [2]; 1.57 µM in assay [3]; 3.27 µM in assay [4]; 15.5 µM in assay [5]; 1.05 µM in assay [6]. Moreover, the GI50 in assay [7] was 0.41 µM; in [8], 2.47 µM; in assay [9] it was 1.75 µM; in [10] it was 1.74 µM. Further, the TGI in assay [1] stood at 1.99 µM; in assay [2], 4.04 µM; in [3] it was 13.4 µM; in assay [4], 21.6 µM; in [5], 30.3 µM; in assay [6], 3.23 µM. Moreover, the TGI in assay [7] came out at 11.8 µM; in assay [8] it was 27.9 µM; in assay [9], 5.81 µM; in assay [10], 3.56 µM.

Take `COc1cc2c(cc1Nc1nc(N3CCc4ccccc43)c3cc[nH]c3n1)N(C(=O)CN(C)C)CC2`: the GI50 in assay [1] is 3 µM; in assay [2], 8.43 µM; in [3], 3.34 µM; in assay [4], 8.38 µM; in assay [5], 3.13 µM; in [6] it was 1.59 µM. The GI50 in assay [7] was 1.88 µM; in assay [8], 4.98 µM; in [9] it was 5.03 µM; in assay [10], 1.4 µM. The TGI in assay [1] was 8.99 µM; in assay [2], 14.1 µM; in assay [3], 8.88 µM; in [4] it was 15.7 µM; in assay [5] it was 7.33 µM; in assay [6] it was 10.2 µM. Moreover, the TGI was determined as 4.79 µM in [7], 14.6 µM in assay [8], 10.3 µM in assay [9] and 3.38 µM in [10].

As for `COc1ccc2c(c1)c(-c1nc(-c3c[nH]c4ncccc34)cs1)cn2CCCN1CCOCC1`, the GI50 in [1] is 1.74 µM; in assay [2] it was 0.481 µM; in assay [3], 4.04 µM; in [4], 2 µM; in assay [5] it was 2.04 µM; in assay [6], 1.74 µM. For the same compound, the GI50 in [7] is 1.85 µM; in [8], 2.68 µM; in assay [9], 2.69 µM; in assay [10] it was 1.95 µM. Moreover, the TGI in assay [1] was 3.44 µM; in assay [2], 2.04 µM; in assay [3] it was 13.1 µM; in [4], 5.87 µM; in assay [5] it was 4.34 µM; in assay [6] it was 3.27 µM. The TGI worked out at 4.4 µM in assay [7], 8.75 µM in assay [8], 10.3 µM in [9] and 3.83 µM in assay [10].

With `Cn1c([N+](=O)[O-])cnc1C=C1C(=O)c2ccccc2C1=O`, the GI50 in [1] was 5.18 µM; in assay [2] it was 7.05 µM; in assay [3], 12.2 µM; in [4], 3.86 µM; in [5], 13.5 µM; in [6], 2.84 µM. Further, the GI50 in [7] is 3.68 µM; in assay [8], 4.9 µM; in assay [9] it was 3.95 µM; in [10] it was 2.56 µM. Moreover, the TGI in assay [1] was determined as 28.3 µM; in [2] it was 22.6 µM; in assay [3], 41.3 µM; in [4], 12.8 µM; in [5], 32.2 µM; in assay [6], 11.1 µM. Further, the TGI in [7] worked out at 17.6 µM; in assay [8], 20.5 µM; in assay [9] it was 16.7 µM; in [10], 7.4 µM.

For `O=C1Oc2ccccc2C(=O)/C1=C1/C=C(c2ccccc2)SS1`, the TGI in assay [1], in assay [2], in assay [3], in assay [4], in assay [5] and in [6] was above 100 µM throughout. Moreover, the TGI in [7] was 71.8 µM; in assay [8], above 100 µM; in [9], above 100 µM; in assay [10] it was above 100 µM.

For `Cc1ccc2c(-c3ccnc(Nc4ccc5c(c4)OCCO5)n3)c(-c3ccc(C(F)(F)F)cc3)nn2n1`, the GI50 in assay [1] was above 21.3 µM; in assay [2], 2.13 µM; in assay [3], 13.3 µM; in [4], 4.45 µM; in assay [5], 12.3 µM; in assay [6], 1.5 µM. For the same compound, the GI50 in [7] is 6.89 µM; in assay [8], 14.3 µM; in assay [9] it was above 25 µM; in assay [10], above 25 µM. In addition, the TGI is above 25 µM in assay [1]; 18 µM in [2]; above 25 µM in assay [3]; above 25 µM in assay [4]; above 25 µM in assay [5]; 6.68 µM in assay [6]. Also, the TGI in [7], in assay [8], in assay [9] and in assay [10] was above 25 µM throughout.

In the case of `N#CC1(c2ccc(NC(=O)c3cccnc3NCc3ccncc3)cc2)CCCC1`, the GI50 in assay [1] was 14.5 µM; in assay [2], 10.2 µM; in [3] it was 17.3 µM; in assay [4] it was 10.2 µM; in assay [5] it was 25.8 µM; in assay [6], 14.3 µM. The GI50 in assay [7] was 6.26 µM; in assay [8], 12.8 µM; in [9], 27 µM; in assay [10] it was 17.3 µM. In addition, the TGI in [1] was 49.6 µM; in assay [2] it was 60.9 µM; in assay [3], above 79.7 µM; in assay [4] it was 61 µM; in assay [5], above 100 µM; in [6], 29.2 µM. Besides, the TGI was 31.9 µM in [7], 41.8 µM in assay [8], above 100 µM in assay [9] and above 89.8 µM in assay [10].

With `Cc1cccc(NC(=O)c2sc3nc4c(cc3c2N)C(=O)CCC4)c1`, the GI50 in assay [1] is 0.527 µM; in assay [2], 0.0656 µM; in [3], 0.335 µM; in [4] it was 2.68 µM; in assay [5] it was 0.54 µM; in assay [6], 1 µM. Moreover, the GI50 in assay [7] was 25 µM; in [8] it was 0.67 µM; in [9] it was 3.07 µM; in [10], 1.53 µM. In addition, the TGI is above 41 µM in assay [1]; 0.801 µM in assay [2]; above 100 µM in assay [3]; above 96.3 µM in [4]; above 100 µM in assay [5]; above 70 µM in assay [6]. Besides, the TGI in [7] is above 100 µM; in [8], above 60.4 µM; in assay [9], above 100 µM; in assay [10] it was above 62.3 µM.

With `O=C(Nc1cccc(-n2cc(-c3ccncc3)c(-c3cc(O)cc(Cl)c3)n2)c1)c1ccc(N2CCOCC2)c(C(F)(F)F)c1`, the GI50 was 2.24 µM in assay [1]; 19.4 µM in [2]; 1.64 µM in assay [3]; 4.21 µM in assay [4]; 1.82 µM in assay [5]; 1.03 µM in assay [6]. The GI50 was 1.11 µM in assay [7], 3.65 µM in assay [8], 8.51 µM in assay [9] and 0.759 µM in assay [10]. Besides, the TGI was 10.1 µM in [1]; 73.2 µM in assay [2]; 18 µM in assay [3]; above 100 µM in assay [4]; 7.95 µM in [5]; 4.61 µM in assay [6]. The TGI in assay [7] was 4.38 µM; in assay [8], 38.8 µM; in assay [9], above 100 µM; in assay [10] it was 3.27 µM.

On to `CC1(C)N=C(N)N=C(N)N1c1ccc(CCC(=O)Nc2ccc(S(=O)(=O)F)cc2)cc1`, for which the GI50 in assay [1] was 0.529 µM; in [2] it was 5.99 µM; in [3], 2.87 µM; in assay [4], 12.6 µM; in [5], 3.85 µM; in assay [6], 1.66 µM. The GI50 is 4.62 µM in assay [7], 2.19 µM in assay [8], 1.31 µM in [9] and 8.22 µM in [10]. In addition, the TGI in assay [1], in assay [2], in assay [3], in assay [4], in assay [5] and in [6] was above 100 µM in each case. In addition, the TGI in assay [7], in assay [8], in [9] and in assay [10] was above 100 µM throughout.

Turning to `O=C1c2cccc(Oc3ccccc3)c2C(=O)c2cccc(Oc3ccccc3)c21`, the GI50 in [1] is 27.5 µM; in [2] it was above 100 µM; in assay [3], above 100 µM; in assay [4], 22.9 µM; in assay [5], above 100 µM; in [6] it was above 100 µM. Besides, the GI50 in assay [7] is above 100 µM; in assay [8], above 100 µM; in assay [9] it was 39.8 µM; in assay [10] it was above 100 µM. For the same compound, the TGI in assay [1], in assay [2], in assay [3], in [4], in assay [5] and in assay [6] was above 100 µM each time. Further, the TGI in assay [7], in assay [8], in [9] and in assay [10] was above 100 µM each time.

In the case of `COc1ccc2c(c1)C(=O)c1c-2c(Nc2ccccc2OC)nc2ccccc12`, the GI50 in assay [1], in [2], in [3], in assay [4], in assay [5] and in [6] was above 100 µM each time. The GI50 in assay [7], in [8], in assay [9] and in assay [10] was above 100 µM throughout. In addition, the TGI in assay [1], in [2], in [3], in assay [4], in assay [5] and in [6] was above 100 µM in each case. For the same compound, the TGI in [7], in assay [8], in assay [9] and in [10] was above 100 µM throughout.

As to `CNC(=O)c1ncccc1Nc1nc(Nc2cc3c(cc2OC)CCCN3C(=O)CN(C)C)nc2[nH]ccc12`, the GI50 is 3.23 µM in [1]; 1.18 µM in assay [2]; 0.845 µM in [3]; 2.7 µM in assay [4]; 0.518 µM in assay [5]; 1.26 µM in assay [6]. The GI50 in assay [7] is 1.05 µM; in assay [8], 0.476 µM; in assay [9], 1.46 µM; in assay [10] it was 3.18 µM. Besides, the TGI was determined as 7.02 µM in [1]; 5.46 µM in [2]; 4.39 µM in assay [3]; 6.04 µM in [4]; 4.12 µM in assay [5]; 4.77 µM in assay [6]. Besides, the TGI in assay [7] is 5.76 µM; in assay [8], 3.07 µM; in assay [9], 5.4 µM; in assay [10] it was 6.77 µM.

`COc1ccc2c(N)ncc(C#Cc3cc(C(=O)Nc4ccc(CN5CCN(C)CC5)c(C(F)(F)F)c4)cnc3C)c2c1`: the GI50 is 0.673 µM in assay [1]; 0.842 µM in assay [2]; 0.576 µM in assay [3]; 6.02 µM in assay [4]; 1.42 µM in assay [5]; 0.505 µM in assay [6]. Moreover, the GI50 in assay [7] was 0.396 µM; in assay [8], 1.89 µM; in [9] it was 1.21 µM; in assay [10], 0.66 µM. Moreover, the TGI in assay [1] was determined as 1.25 µM; in assay [2], 3 µM; in [3], 1.28 µM; in assay [4], 14.9 µM; in assay [5], 5.36 µM; in assay [6], 1.08 µM. Further, the TGI in assay [7] was 1.67 µM; in assay [8] it was 8.79 µM; in assay [9], 4.78 µM; in assay [10] it was 1.81 µM.

With `C[C@]12CC[C@H]3[C@@H](CCC4=CC(=O)CC[C@@]43C)[C@@H]1CC[C@@H]2c1csc(N)n1`, the GI50 in [1] is 10.7 µM; in assay [2], 2.51 µM; in [3], 5.77 µM; in assay [4], 6.12 µM; in [5], 5.08 µM; in assay [6], 3.38 µM. The GI50 in assay [7] is 2.5 µM; in assay [8], 2.85 µM; in [9], 5.07 µM; in assay [10] it was 10 µM. In addition, the TGI in [1] is 33.4 µM; in assay [2], 12.4 µM; in assay [3], 31.6 µM; in [4] it was 21.3 µM; in [5] it was 19.6 µM; in assay [6], 15.9 µM. The TGI in assay [7] came out at 11.2 µM; in assay [8], 19.9 µM; in [9], 24.1 µM; in assay [10], 26 µM.
